Experimental data: ChEMBL document CHEMBL2380247, “Synthesis and biological evaluation of novel aliphatic amido-quaternary ammonium salts for anticancer chemotherapy: part II” (2013)

Experiments:
Type in all cases: functional
PC-3 [1] = assay: Antiproliferative activity against human PC3 cells at 0.1 uM by SRB assay
NUGC-3 [2] = assay: Antiproliferative activity against human NUGC3 cells at 10 uM by SRB assay
HCT-15 [3] = assay: Antiproliferative activity against human HCT15 cells at 3 uM by SRB assay
MDA-MB-231 [4] = assay: Antiproliferative activity against human MDA-MB-231 cells at 0.1 uM by SRB assay
PC-3 [5] = assay: Antiproliferative activity against human PC3 cells at 3 uM by SRB assay
ACHN [6] = assay: Antiproliferative activity against human ACHN cells by SRB assay
ACHN [7] = assay: Antiproliferative activity against human ACHN cells at 1 uM by SRB assay
HCT-15 [8] = assay: Antiproliferative activity against human HCT15 cells at 0.3 uM by SRB assay
MDA-MB-231 [9] = assay: Antiproliferative activity against human MDA-MB-231 cells at 10 uM by SRB assay
NCI-H23 [10] = assay: Antiproliferative activity against human NCI-H23 cells at 0.3 uM by SRB assay
NUGC-3 [11] = assay: Antiproliferative activity against human NUGC3 cells at 0.1 uM by SRB assay
MDA-MB-231 [12] = assay: Antiproliferative activity against human MDA-MB-231 cells by SRB assay
ACHN [13] = assay: Antiproliferative activity against human ACHN cells at 3 uM by SRB assay
NUGC-3 [14] = assay: Antiproliferative activity against human NUGC3 cells by SRB assay
NUGC-3 [15] = assay: Antiproliferative activity against human NUGC3 cells at 3 uM by SRB assay
MDA-MB-231 [16] = assay: Antiproliferative activity against human MDA-MB-231 cells at 1 uM by SRB assay
HCT-15 [17] = assay: Antiproliferative activity against human HCT15 cells by SRB assay
MDA-MB-231 [18] = assay: Antiproliferative activity against human MDA-MB-231 cells at 3 uM by SRB assay
HCT-15 [19] = assay: Antiproliferative activity against human HCT15 cells at 0.1 uM by SRB assay
MDA-MB-231 [20] = assay: Antiproliferative activity against human MDA-MB-231 cells at 0.3 uM by SRB assay
NCI-H23 [21] = assay: Antiproliferative activity against human NCI-H23 cells at 0.1 uM by SRB assay
PC-3 [22] = assay: Antiproliferative activity against human PC3 cells at 10 uM by SRB assay
PC-3 [23] = assay: Antiproliferative activity against human PC3 cells at 0.3 uM by SRB assay
ACHN [24] = assay: Antiproliferative activity against human ACHN cells at 0.1 uM by SRB assay
NCI-H23 [25] = assay: Antiproliferative activity against human NCI-H23 cells by SRB assay
ACHN [26] = assay: Antiproliferative activity against human ACHN cells at 10 uM by SRB assay
NCI-H23 [27] = assay: Antiproliferative activity against human NCI-H23 cells at 1 uM by SRB assay
NCI-H23 [28] = assay: Antiproliferative activity against human NCI-H23 cells at 3 uM by SRB assay
PC-3 [29] = assay: Antiproliferative activity against human PC3 cells at 1 uM by SRB assay
NUGC-3 [30] = assay: Antiproliferative activity against human NUGC3 cells at 1 uM by SRB assay
HCT-15 [31] = assay: Antiproliferative activity against human HCT15 cells at 10 uM by SRB assay
PC-3 [32] = assay: Antiproliferative activity against human PC3 cells by SRB assay
ACHN [33] = assay: Antiproliferative activity against human ACHN cells at 0.3 uM by SRB assay
NUGC-3 [34] = assay: Antiproliferative activity against human NUGC3 cells at 0.3 uM by SRB assay
NCI-H23 [35] = assay: Antiproliferative activity against human NCI-H23 cells at 10 uM by SRB assay
HCT-15 [36] = assay: Antiproliferative activity against human HCT15 cells at 1 uM by SRB assay

Row | SMILES | growth, % of control at 0.1 µM (PC-3 [1]) [%] | growth, % of control at 10 µM (NUGC-3 [2]) [%] | growth, % of control at 3 µM (HCT-15 [3]) [%] | growth, % of control at 0.1 µM (MDA-MB-231 [4]) [%] | growth, % of control at 3 µM (PC-3 [5]) [%] | GI50 (ACHN [6]) [nM] | growth, % of control at 1 µM (ACHN [7]) [%] | growth, % of control at 0.3 µM (HCT-15 [8]) [%] | growth, % of control at 10 µM (MDA-MB-231 [9]) [%] | growth, % of control at 0.3 µM (NCI-H23 [10]) [%] | growth, % of control at 0.1 µM (NUGC-3 [11]) [%] | GI50 (MDA-MB-231 [12]) [nM] | growth, % of control at 3 µM (ACHN [13]) [%] | GI50 (NUGC-3 [14]) [nM] | growth, % of control at 3 µM (NUGC-3 [15]) [%] | growth, % of control at 1 µM (MDA-MB-231 [16]) [%] | GI50 (HCT-15 [17]) [nM] | growth, % of control at 3 µM (MDA-MB-231 [18]) [%] | growth, % of control at 0.1 µM (HCT-15 [19]) [%] | growth, % of control at 0.3 µM (MDA-MB-231 [20]) [%] | other results
1 | CCCCCCCCCCCCCCCCCC(=O)NCC(C)(C)C[N+](C)(C)CC | 89.5 | 2.11 | 61.6 | 87.8 | -38.3 | 1950 | 75.5 | 96.7 | 19.9 | 97.7 | 83.1 | 1120 | 50 | 420 | 14.8 | 70.4 | 2740 | 40.4 | 98 | 79.1 | growth, % of control at 0.1 µM (NCI-H23 [21]): 95.1%; growth, % of control at 10 µM (PC-3 [22]): -46.2%; growth, % of control at 0.3 µM (PC-3 [23]): 82.2%; growth, % of control at 0.1 µM (ACHN [24]): 91.5%; GI50 (NCI-H23 [25]): 980 nM; growth, % of control at 10 µM (ACHN [26]): 33%; growth, % of control at 1 µM (NCI-H23 [27]): 74.7%; growth, % of control at 3 µM (NCI-H23 [28]): 29.8%; growth, % of control at 1 µM (PC-3 [29]): 21.6%; growth, % of control at 1 µM (NUGC-3 [30]): 52.5%; growth, % of control at 10 µM (HCT-15 [31]): 32.6%; GI50 (PC-3 [32]): 300 nM; growth, % of control at 0.3 µM (ACHN [33]): 82.9%; growth, % of control at 0.3 µM (NUGC-3 [34]): 69.6%; growth, % of control at 10 µM (NCI-H23 [35]): -18.3%; growth, % of control at 1 µM (HCT-15 [36]): 86.8%
2 | CCCCCCCCCCCCCCCC(=O)N(C)CC[N+](CC)(CC)CC | 87.4 | -50 | 24.6 | 94.3 | -5.6 | 270 | 16.7 | 83.5 | -17.3 | 84.9 | 99.2 | 360 | -15.6 | 160 | -43.8 | 33.1 | 610 | 12.6 | 89.1 | 80.4 | growth, % of control at 0.1 µM (NCI-H23 [21]): 84%; growth, % of control at 10 µM (PC-3 [22]): -24.2%; growth, % of control at 0.3 µM (PC-3 [23]): 71.9%; growth, % of control at 0.1 µM (ACHN [24]): 106%; GI50 (NCI-H23 [25]): 1110 nM; growth, % of control at 10 µM (ACHN [26]): -42.5%; growth, % of control at 1 µM (NCI-H23 [27]): 72.7%; growth, % of control at 3 µM (NCI-H23 [28]): 45.2%; growth, % of control at 1 µM (PC-3 [29]): 12.6%; growth, % of control at 1 µM (NUGC-3 [30]): -14.6%; growth, % of control at 10 µM (HCT-15 [31]): 3.4%; GI50 (PC-3 [32]): 230 nM; growth, % of control at 0.3 µM (ACHN [33]): 78.5%; growth, % of control at 0.3 µM (NUGC-3 [34]): 53.4%; growth, % of control at 10 µM (NCI-H23 [35]): 8.5%; growth, % of control at 1 µM (HCT-15 [36]): 56.7%
3 | C=CC[N+](CC)(CC)CCN(C)C(=O)CCCCCCCCCCCCC | 91.2 | -7.8 | 85.1 | 93.2 | -6 | 100 | 16.8 | 96.8 | -11.6 | 74.2 | 109 | 300 | 8.6 | 140 | -3.5 | 28.7 | > 10000 | 6.6 | 97.4 | 82.5 | growth, % of control at 0.1 µM (NCI-H23 [21]): 88%; growth, % of control at 10 µM (PC-3 [22]): -21.6%; growth, % of control at 0.3 µM (PC-3 [23]): 74.9%; growth, % of control at 0.1 µM (ACHN [24]): 69%; GI50 (NCI-H23 [25]): 240 nM; growth, % of control at 10 µM (ACHN [26]): -9%; growth, % of control at 1 µM (NCI-H23 [27]): 24.2%; growth, % of control at 3 µM (NCI-H23 [28]): 7.8%; growth, % of control at 1 µM (PC-3 [29]): 12.2%; growth, % of control at 1 µM (NUGC-3 [30]): 1.1%; growth, % of control at 10 µM (HCT-15 [31]): 57.9%; GI50 (PC-3 [32]): 210 nM; growth, % of control at 0.3 µM (ACHN [33]): 42.6%; growth, % of control at 0.3 µM (NUGC-3 [34]): 45.3%; growth, % of control at 10 µM (NCI-H23 [35]): -10%; growth, % of control at 1 µM (HCT-15 [36]): 96.3%
4 | CCCCCCCCCCCCCCCC(=O)N(C)CCC[N+](C)(C)Cc1ccccc1 | 87.8 | -29.5 | 91.4 | 85.3 | 24.4 | 1300 | 79.6 | 96.6 | 13.2 | 91.3 | 110 | 1350 | 47.9 | 520 | -9.77 | 87.3 | > 10000 | 41 | 91.2 | 87.3 | growth, % of control at 0.1 µM (NCI-H23 [21]): 85.2%; growth, % of control at 10 µM (PC-3 [22]): 4.74%; growth, % of control at 0.3 µM (PC-3 [23]): 94.9%; growth, % of control at 0.1 µM (ACHN [24]): 96.9%; GI50 (NCI-H23 [25]): 1110 nM; growth, % of control at 10 µM (ACHN [26]): -10.8%; growth, % of control at 1 µM (NCI-H23 [27]): 91.6%; growth, % of control at 3 µM (NCI-H23 [28]): 25%; growth, % of control at 1 µM (PC-3 [29]): 70.9%; growth, % of control at 1 µM (NUGC-3 [30]): 50.1%; growth, % of control at 10 µM (HCT-15 [31]): 91%; GI50 (PC-3 [32]): 850 nM; growth, % of control at 0.3 µM (ACHN [33]): 90.9%; growth, % of control at 0.3 µM (NUGC-3 [34]): 105%; growth, % of control at 10 µM (NCI-H23 [35]): -8.96%; growth, % of control at 1 µM (HCT-15 [36]): 96.5%
